Residues, ends and D or L forms follow the SMILES beside them. *: point of attachment. Cbz = O=C(OCc1ccccc1)*; CH2F = FC*
Key:
[1] = tested on: postnatal mouse astrocytes; conditions: 5 DPT; for effect on reprogramming efficiency of astrocytes: Ascl1-transfected, 4 days of calcitriol treatment
Procedure: (C) Histogram of astroglial cultures transfected with Ascl1-RFP-encoding plasmid alone or in combination with WT-Bcl-2, EE-Bcl-2 or A-Bcl-2 at 4 days post-transfection (DPT). The number of transfected cells (RFP+) at final time point (4 DPT) was normalized to the initial number of transfected cells (1 DPT) to calculate the % of survival. The % of neuronal conversion was analysed by β-III-tubulin immunostaining and normalized to total number of RFP+ cells at the end of the experiment. Error bars indicate ±SD. *p<0.05, **p<0.01; ANOVA Tukeys post-test.
A, Quantifications at 5 DPT (days post-transfection) showing the effect of the inhibitor of ferroptosis, α-toc and the inhibitor of apoptosis, ZVAD in survival/efficiency of conversion of astroglial cells transfected with Ascl1-RFP.
C, Percentage of neurons in astroglial cells transfected with Ascl1-encoding plasmid alone or in combination with Bcl-2 and/or Vdr at 5 DPT after 4 days of treatment with calcitriol or untreated.
After removal of the meninges, grey matter tissue was dissected from P5-P7 cerebral cortex of C57BL/6J mice and dissociated mechanically. Subsequently, cells were centrifuged for 5 min at 1000 rpm, re-suspended, and plated in medium consisting of DMEM/F12 (Gibco), 3.5 mM glucose (Sigma), 10% fetal calf serum (Gibco), 5% horse serum (Gibco), penicillin/streptomycin (Gibco) and supplemented with B27 (Gibco), 10 ng/mL epidermal growth factor (EGF, Roche) and 10 ng/mL fibroblast growth factor 2 (FGF2, Roche). After one week expansion cells were harvested using trypsin/EDTA (Gibco) and plated onto poly-D-lysine (Sigma-Aldrich) coated glass coverslips in 24-well plates (BD Biosciences) or directly onto the plastic for time lapse experiments at a density of 60,000 cells per well in the same medium. After 24 hours cells were either transfected with plasmid or infected with retroviral vectors and after further 24 hours medium was changed to differentiation medium composed of DMEM/F12 high glucose with GlutaMAX, penicillin/streptomycin and B27 supplement (Gibco) to allow neuronal differentiation.
For transfection DNA-liposome complexes were prepared in Optimem medium (Invitrogen) using the retroviral plasmids described below and Lipofectamine 2000 (Invitrogen). Astrocyte cultures were exposed to DNA-liposome complexes at a concentration of 0.5 μg DNA per 400 μl of Optimem medium for 4 hours and cultured after that in the differentiation medium as above.
Cells were fixed in 4% paraformaldehyde (PFA) in phosphate-buffered saline (PBS) for 10 min at room temperature (RT), washed in PBS and pretreated in 0.5% Triton X-100 in PBS for 30 min, followed by incubation in 2% BSA and 0.5% Triton X-100 in PBS for 30 min. Primary antibodies were incubated on specimen overnight at 4° C. in 2% BSA, 0.5% Triton X-100 in PBS.

adult human fibroblasts = assay: Neuronal reprogramming of adult human fibroblasts; type: cell-based; conditions: for effect on reprogramming efficiency of human fibroblasts: combination Ascl1/Bcl-2/Vdr, 60 DPI
Source text: To determine whether Bcl-2 would also efficiently enhance reprogramming into neurons in cells from other species, we used fibroblasts obtained from a person that were expanded and transduced as described above with the retroviral vector encoding Ascl1 and RFP alone or in combination with a second vector encoding the human BCL-2 (hBCL-2) and the reporter GFP.
Primary cultures of human skin fibroblasts were established from 3 mm diameter full thickness punch biopsy specimens which were mechanically dissociated before plating. […] For reprogramming experiments cells were plated on coverslips in 24-well plates as described above for astrocytes and 48 hours after infection medium was changed to DMEM high glucose with GlutaMAX and 1% fetal calf serum, penicillin/streptomycin and B27 supplement (Gibco). During the reprogramming process, medium was replaced by conditioned-astrocyte medium every 3 days. Conditioned-astrocyte medium is obtained by growing astroglial culture with differentiation medium (see Cell cultures of astroglia from the postnatal mouse cerebral cortex above) during minimum of 2 days. Then the medium is collected from astrocytes and used for reprogramming of the human cells.
For the expression of neurogenic transcription factors we used self-inactivating retroviral vectors containing the actin promoter with cytomegalovirus enhancer (pCAG) driving the expression of the gene of interest (flag/myc-Ascl1, flag-Neurog2, Bcl-2 or Dlx-2) linked to a fluorescent reporter by internal ribosomal entry site (IRES) as previously described (Heinrich et al., 2011). The mouse version of Bcl-2 cDNA was obtained from Source BioScience (IRAVp968H01145D; pCMV-SPORT6.1-Bcl-2) and the human cDNA version (h-Bcl-2) from addgene (Plasmid number 8793; pMIG-Bcl-2-IRES-GFP) to generate RV-pCAG-flag/myc-Ascl1-IRES-Bcl-2, RV-pCAG-flag-Neurog2-IRES-Bcl-2 or RV-pCAG-Bcl-2-IRES-GFP, which encodes for both Bcl-2 and the reporter GFP. The Bcl-2 mutants A-Bcl-2 and EE-Bcl-2 were produced by directed mutagenesis with the oligos 5′-[…]-3′ (SEQ ID NO: 18) (and complementary (SEQ ID NO: 20)) and 5′-[…]-3′ (SEQ ID NO: 19) (and complementary (SEQ ID NO: 21)) respectively, to generate the vectors pCMV-SPORT6.1-A-Bcl-2, RV-pCAG-Ascl1-IRES-A-Bcl-2 and RV-pCAG-Neurog2-IRES-A-Bcl-2 and the corresponding EE-Bcl-2 versions. Mutations were verified by sequencing. The murine Vdr was obtained from Sino Biological (MG51106-G, Vector pGEM-T) and sub-cloned in the retroviral vector to generate RV-pCAG-Vdr-IRES-GFP.

reactive glial cells = assay: In vivo conversion of reactive glial cells into neurons after stab wound injury
Source text: A, Experimental protocol for stab wound injury and subsequent infection with retroviral vectors (Neurog2/RFP and Bcl-2/GFP) or treatment with calcitriol, analysed at 10 or 20 days post-infection (DPI).
To highlight the relevance of our findings we next tested the efficiency of the methods described above in vivo. For that, we performed stab wound injury followed by injection of retroviral vectors encoding Neurog2-IRES-RFP and Bcl-2-IRES-GFP next to the injury site (FIG. 7A) using a previously described protocol (see Heinrich et al., 2014). Control infected cells were glial in nature, mostly NG2+ cells of the oligodendrocyte lineage or S100b/GFAP+ astrocytes as described before (Heinrich et al., 2014). […] To examine whether key metabolic constraints observed to be important for fate conversion in vitro were also relevant in vivo we tested activation of the Vitamin D receptor pathway by the ligand calcitriol.
Operations were performed in accordance with the policies of the state of Bavaria under license number 55.2-1-54-2532-171-11. A unilateral stab wound lesion (1 mm long, 0.6 mm deep from the dura mater) was performed in the right neocortex with a 19 gauge-thick lancet without injuring the cortical white matter, as previously described (Sirko et al. 2013; Simon et al. 2011). Three days later, 0.5-1 μl of retroviral suspension (Neurog2-IRES-RFP and Bcl-2-IRES-GFP, 1:1) was injected in the site of the lesion with a glass capillary connected to a microinjector (Nanoliter2000+Sys-Micro4, World Precision Instrument), at a rate of 30-60 nl/min. The needle was retracted 5 minutes after completing the injection. When indicated in the text, 200 μl of Calcitriol (Tocris) diluted in corn oil (final concentration of 1 ng/μl) were administered through oral gavage 2 days after the retroviral injection. The dosage was determined according with previous publications (Nashold et al. 2013).
Animals were anesthetized and transcardially perfused with 1× phosphate-buffered saline (PBS), followed by 4% paraformaldehyde (PFA) in PBS. Brains were postfixed for 2 hours, washed twice with PBS and embedded in 4% agarose/water. Finally, 60 μm-thick coronal sections were cut using a vibrating microtome (Leica).

[2] = tested on: Mouse embryonic fibroblasts (MEFs); assay: Fibroblast-to-neuron reprogramming of MEFs with retroviral vectors, β-III-tubulin immunostaining; type: cell-based; conditions: Neurog2-based retroviral vectors, 15 days after infection
[3] = astroglial cells transfected with Ascl1-RFP

Q: For `COC(=O)C[C@H](NC(=O)[C@H](C)NC(=O)[C@@H](NC(=O)OCc1ccccc1)C(C)C)C(=O)CF` [ZVAD] (Cbz-Val-Ala-Asp(OMe)-CH2F), which “effect on efficiency of conversion (reprogramming efficiency)” value [1, 3] is on record?
A: not conversion efficiency

Q: With `C=C1/C(=C\C=C2/CCC[C@]3(C)[C@@H]([C@H](C)CCCC(C)(C)O)CC[C@@H]23)C[C@@H](O)C[C@@H]1O` [calcitriol, reference compound] as the molecule, how does the “effect on reprogramming efficiency of human fibroblasts” value (adult human fibroblasts) read?
A: enhance reprogramming efficiency

Q: And the “effect on morphology and maturation state of the neurons” value (reactive glial cells; Neurog2 + Bcl-2, calcitriol 200 ng orally, 23 days after viral infection)?
A: profoundly improved morphology and maturation state of the neurons

Q: And the “proportion of NeuN+ neurons of all co-transduced cells” value (reactive glial cells; Neurog2 + Bcl-2 co-expression, calcitriol 200 ng orally 2 days after viral injection, 10 DPI)?
A: ~90%

Q: And the “effect on reprogramming efficiency of astrocytes” value [1]?
A: enhance reprogramming efficiency

Q: `Cc1c(C)c2c(c(C)c1O)CC[C@@](C)(CCC[C@H](C)CCC[C@H](C)CCCC(C)C)O2` [α-tocopherol] was tested. Which “effect on efficiency of conversion (reprogramming efficiency)” value [1, 3] did it give?
A: increase reprogramming efficiency

Q: And the “effect on survival / cell death” value [1, 3]?
A: reduces cell death

Q: “hBcl-2: human BCL-2 encoded by a retroviral vector with the reporter GFP” was tested. Which “increase of β-III-tubulin+ cells compared to Ascl1/RFP expressing cells” value (adult human fibroblasts; co-transduced with Ascl1) did it give?
A: 32 × fold

Q: What about the “co-infected cells (RFP and GFP) that were β-III-tubulin+” value (adult human fibroblasts; co-transduced with Ascl1, fibroblasts from a person) of the same molecule?
A: up to 70%

B1: Neurog2: neurogenic transcription factor expressed from retroviral vector with RFP (protein, UniProt P70447 1-263, looked up)
Neurogenin-2: MFVKSETLELKEEEEVLMLLGSASPASATLTPMSSSADEEEDEELRRPGSARGQRGAEAEQGVQGSPASGAGGCRPGRLLGLMHECKRRPSRSRAVSRGAKTAETVQRIKKTRRLKANNRERNRMHNLNAALDALREVLPTFPEDAKLTKIETLRFAHNYIWALTETLRLADHCAGAGGLQGALFTEAVLLSPGAALGASGDSPSPPSSWSCTNSPASSSNSTSPYSCTLSPASPGSDVDYWQPPPPEKHRYAPHLPLARDCI
Q: With B1 as the molecule, how does the “proportion of neurons induced from MEFs, of all infected cells” value [2] read?
A: 10%

Q: And the “acquisition of neuronal marker NeuN by singly transduced cells” value (reactive glial cells; single GFP+ or RFP+ cells, 10 DPI)?
A: rarely acquired the neuronal marker NeuN

B2: Vdr: murine vitamin D receptor over-expressed from retroviral vector RV-pCAG-Vdr-IRES-GFP (protein, listed as Mus musculus)
chain: MEAMAASTSLPDPGDFDRNVPRICGVCGDRATGFHFNAMTCEGCKGFFRRSMKRKALFTCPFNGDCRITKDNRRHCQACRLKRCVDIGMMKEFILTDEEVQRKREMIMKRKEEEALKDSLRPKLSEEQQHIIAILLDAHHKTYDPTYADFRDFRPPIRADVSTGSYSPRPTLSFSGDSSSNSDLYTPSLDMMEPASFSTMDLNEEGSDDPSVTLDLSPLSMLPHLADLVSYSIQKVIGFAKMIPGFRDLTSDDQIVLLKSSAIEVIMLRSNQSFTLDDMSWDCGSQDYKYDITDVSRAGHTLELIEPLIKFQVGLKKLNLHEEEHVLLMAICIVSPDRPGVQDAKLVEAIQDRLSNTLQTYIRCRHPPPGSHQLYAKMIQKLADLRSLNEEHSKQYRSLSFQPENSMKLTPLVLEVFGNEIS
Q: How did the “effect on reprogramming efficiency of human fibroblasts” value (adult human fibroblasts) turn out when B2 was run?
A: enhance reprogramming efficiency

Q: And the “effect on reprogramming efficiency of astrocytes” value [1]?
A: enhance reprogramming efficiency

Source: US10752881B2, “Trans-differentiation of differentiation cells” (Helmholtz Zentrum München-Deutsches Forschungszentrum für …, priority 2014, dated 2020)
